Experiment [1] concerns the target recombinant human HPK1 (Homo sapiens (Human), UniProt Q92918). Description: HPK1 kinase assay (ADP-Glo). The class given is biochemical. As to conditions: 25 μM ATP, MBP substrate. The gist of the method:
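Activity was read as ADP formed, detected by ADP-Glo luminescence after the reaction of 5 ng recombinant human HPK1 with MBP and ATP (stocks 0.5 μg/μl and 25 μM) for 40 min at 30 °C. Buffer was Tris pH 7.5 with MgCl2, BSA and DTT, with compound in 0.5% DMSO. IC50 came from inhibition curves.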

Experiment [2] relates to human peripheral blood pan T cells. Description: IFNγ and IL-2 analysis of human peripheral pan T cells. The class given is cell-based. The conditions noted are these: T-cell, CD3/CD28 bead stimulation, 100 nM Prostaglandin E2, 24 hr. The procedure:
IFNγ and IL-2 Analysis of Human Peripheral Pan T Cells
Human peripheral blood pan T cells were purchased from STEMCELL™ Technologies Inc. Human peripheral blood pan T cells were thawed and suspended in DMEM media (10% FBS and 10 Penicillin/Streptomycin). 8×10^4 T cells were seeded in 96-well plate and incubated with various concentration of compounds and 100 nM Prostaglandin E2 for 1 hr. T cells were stimulated with Dynabeads Human T-Activator CD3/CD28 (Life Technologies) at a 1:3 cells: beads ratio. […] Data were analyzed with an MESO Quickplex SQ120 (Mesoscale Discovery).
In Table 3, the values represent + for >1000 nM, ++ 200-1,000 nM, +++ for <200 nM and − for not determined.

Setting [3] is: IFNγ secretion, read-out: IFNγ (EC50).
Where [4] appears, read: IL-2 secretion, read-out: IL-2 (EC50).

Where two headings read alike, the source gives them in different places.

recombinant human HPK1, sequence (Q92918 whole entry): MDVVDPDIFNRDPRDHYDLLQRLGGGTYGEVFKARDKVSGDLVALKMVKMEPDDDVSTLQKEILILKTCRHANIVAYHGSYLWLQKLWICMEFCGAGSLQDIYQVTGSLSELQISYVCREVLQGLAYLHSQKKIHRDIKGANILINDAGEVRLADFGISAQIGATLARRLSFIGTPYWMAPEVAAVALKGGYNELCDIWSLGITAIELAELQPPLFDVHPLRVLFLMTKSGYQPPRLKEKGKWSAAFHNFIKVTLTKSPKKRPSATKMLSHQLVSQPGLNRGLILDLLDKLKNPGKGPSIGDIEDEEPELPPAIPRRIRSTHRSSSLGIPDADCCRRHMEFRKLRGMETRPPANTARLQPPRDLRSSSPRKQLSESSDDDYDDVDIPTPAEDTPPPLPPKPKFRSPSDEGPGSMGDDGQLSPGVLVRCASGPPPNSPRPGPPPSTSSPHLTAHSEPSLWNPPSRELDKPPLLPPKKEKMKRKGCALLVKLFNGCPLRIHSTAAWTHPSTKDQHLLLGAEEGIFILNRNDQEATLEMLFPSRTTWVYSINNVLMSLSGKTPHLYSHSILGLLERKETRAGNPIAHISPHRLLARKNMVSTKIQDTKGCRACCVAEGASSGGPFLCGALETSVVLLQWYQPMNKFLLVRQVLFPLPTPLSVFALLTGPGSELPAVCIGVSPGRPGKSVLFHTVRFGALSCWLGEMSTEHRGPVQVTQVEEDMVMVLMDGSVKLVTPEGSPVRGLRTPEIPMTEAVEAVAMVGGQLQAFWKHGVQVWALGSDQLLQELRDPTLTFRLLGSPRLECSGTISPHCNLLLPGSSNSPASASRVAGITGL

Regarding `CC(=O)N(C)c1c(F)c(Cl)c(-c2ccc3nc(NC(=O)[C@@H]4C[C@@H]4F)cn3c2)c2cn[nH]c12` [Example 316, (1S,2S)-N-(6-(5-chloro-6-fluoro-7-(N-methylacetamido)-1H-indazol-4-yl)imidazo[1,2-a]pyridin-2-yl)-2-fluorocyclopropane-1-carboxamide], the IC50 in experiment [1] is < 100 nM. Also, the concentration for a half-maximal effect (EC50) in experiment [2] (setting [3]) is 200 to 1000 nM; in experiment [2] (setting [4]), > 1000 nM.

In the case of `CN(C)C(=O)c1c(F)c(Cl)c(-c2ccc3nc(NC(=O)[C@@H]4C[C@@H]4F)cn3c2)c2cn[nH]c12` [Example 320, 5-chloro-6-fluoro-4-(2-((1S,2S)-2-fluorocyclopropane-1-carboxamido)imidazo[1,2-a]pyridin-6-yl)-N,N-dimethyl-1H-indazole-7-carboxamide], the IC50 in experiment [1] is < 100 nM. In addition, the EC50 in experiment [2] (setting [3]) was in the range of 200 to 1000 nM.

In the case of `CCN(C)c1c(F)c(SC)c(-c2ccc3nc(NC(=O)[C@@H]4C[C@@H]4F)cn3c2)c2cn[nH]c12` [Example 324, (1S,2S)-N-(6-(7-(ethyl(methyl)amino)-6-fluoro-5-(methylthio)-1H-indazol-4-yl)imidazo[1,2-a]pyridin-2-yl)-2-fluorocyclopropane-1-carboxamide], the IC50 in experiment [1] was < 100 nM. Moreover, the EC50 is < 200 nM in experiment [2] (setting [3]) and 200 to 1000 nM in experiment [2] (setting [4]).

With `CCc1c(F)c(N(C)CC)c2[nH]ncc2c1-c1ccc2nc(NC(=O)[C@@H]3C[C@@H]3F)cn2c1` [Example 326, (1S,2S)-N-(6-(5-ethyl-7-(ethyl(methyl)amino)-6-fluoro-1H-indazol-4-yl)imidazo[1,2-a]pyridin-2-yl)-2-fluorocyclopropane-1-carboxamide], the IC50 in experiment [1] was < 100 nM. Besides, the EC50 in experiment [2] (setting [3]) and in experiment [2] (setting [4]) was 200 to 1000 nM in each case.

With `CN(C)c1c(F)c(Cl)c(-c2ccc3nc(NC(=O)C4CC4)cn3c2)c2cn[nH]c12` [Example 327, N-(6-(5-chloro-7-(dimethylamino)-6-fluoro-1H-indazol-4-yl)imidazo[1,2-a]pyridin-2-yl)cyclopropanecarboxamide], in experiment [1], the IC50 is < 100 nM. Besides, the values for the EC50 in experiment [2] (setting [3]) and in experiment [2] (setting [4]) were < 200 nM and 200 to 1000 nM, respectively.

As to `Cc1c(F)c(C(=O)N(C)C)c2[nH]ncc2c1-c1ccc2nc(NC(=O)[C@@H]3C[C@@H]3F)cn2c1` [Example 329, 6-fluoro-4-(2-((1S,2S)-2-fluorocyclopropane-1-carboxamido)imidazo[1,2-a]pyridin-6-yl)-N,N,5-trimethyl-1H-indazole-7-carboxamide], the IC50 in experiment [1] was < 100 nM. Besides, the EC50 in experiment [2] (setting [3]) and in experiment [2] (setting [4]) was 200 to 1000 nM in each case.

For `CN(C)c1c(F)c(Cl)c(-c2ccc3nc(NC(=O)[C@H]4C[C@@H]4F)cn3c2)c2cn[nH]c12` [Example 332, (1R,2S)-N-(6-(5-chloro-7-(dimethylamino)-6-fluoro-1H-indazol-4-yl)imidazo[1,2-a]pyridin-2-yl)-2-fluorocyclopropane-1-carboxamide], the IC50 in experiment [1] is < 100 nM. Moreover, the EC50 in experiment [2] (setting [3]) and in experiment [2] (setting [4]) was 200 to 1000 nM throughout.

As for `CN(C)c1c(F)c(Cl)c(-c2ccc3nc(NC(=O)[C@@H]4C[C@H]4F)cn3c2)c2cn[nH]c12` [Example 333, (1S,2R)-N-(6-(5-chloro-7-(dimethylamino)-6-fluoro-1H-indazol-4-yl)imidazo[1,2-a]pyridin-2-yl)-2-fluorocyclopropane-1-carboxamide], the IC50 in experiment [1] was < 100 nM. The EC50 in experiment [2] (setting [3]) and in experiment [2] (setting [4]) was 200 to 1000 nM in each case.

As for `CN(C)c1c(F)c(Cl)c(-c2ccc3nc(NC(=O)[C@H]4C[C@H]4F)cn3c2)c2cn[nH]c12` [Example 334, (1R,2R)-N-(6-(5-chloro-7-(dimethylamino)-6-fluoro-1H-indazol-4-yl)imidazo[1,2-a]pyridin-2-yl)-2-fluorocyclopropane-1-carboxamide], the half-maximal inhibitory concentration (IC50) in experiment [1] was < 100 nM. The concentration giving a half-maximal response (EC50) in experiment [2] (setting [3]) and in experiment [2] (setting [4]) was 200 to 1000 nM throughout.

Turning to `CC(C)Nc1c(F)c(Cl)c(-c2ccc3nc(NC(=O)[C@@H]4C[C@@H]4F)cn3c2)c2cn[nH]c12` [Example 359, (1S,2S)-N-(6-(5-chloro-6-fluoro-7-(isopropylamino)-1H-indazol-4-yl)imidazo[1,2-a]pyridin-2-yl)-2-fluorocyclopropane-1-carboxamide], the IC50 in experiment [1] is < 100 nM. Besides, the EC50 in experiment [2] (setting [3]) and in experiment [2] (setting [4]) was 200 to 1000 nM in each case.

For the compound `CN(c1c(F)c(Cl)c(-c2ccc3nc(NC(=O)[C@@H]4C[C@@H]4F)cn3c2)c2cn[nH]c12)C1CC1` [Example 361, (1S,2S)-N-(6-(5-chloro-7-(cyclopropyl(methyl)amino)-6-fluoro-1H-indazol-4-yl)imidazo[1,2-a]pyridin-2-yl)-2-fluorocyclopropane-1-carboxamide], the IC50 in experiment [1] is < 100 nM. Moreover, the figures for the EC50 in experiment [2] (setting [3]) and in experiment [2] (setting [4]) were 200 to 1000 nM and > 1000 nM, respectively.

Turning to `CN(C)c1c(F)c(Cl)c(-c2ccn3nc(NC(=O)[C@@H]4C[C@@H]4F)cc3c2)c2cn[nH]c12` [Example 484, (1S,2S)-N-(5-(5-chloro-7-(dimethylamino)-6-fluoro-1H-indazol-4-yl)pyrazolo[1,5-a]pyridin-2-yl)-2-fluorocyclopropane-1-carboxamide], the IC50 in experiment [1] is < 100 nM. Further, the concentration for a half-maximal effect (EC50) was < 200 nM in experiment [2] (setting [3]) and 200 to 1000 nM in experiment [2] (setting [4]).

`CSc1c(F)c(C)c(-c2ccn3nc(NC(=O)[C@@H]4C[C@@H]4F)cc3c2)c2cn[nH]c12` [Example 488, (1S,2S)-2-fluoro-N-(5-(6-fluoro-5-methyl-7-(methylthio)-1H-indazol-4-yl)pyrazolo[1,5-a]pyridin-2-yl)cyclopropane-1-carboxamide]: in experiment [1], the IC50 was < 100 nM. Also, in experiment [2] (setting [3]), the EC50 fell in the range of 200 to 1000 nM.

For `CN(c1c(F)c(Cl)c(-c2ccn3nc(NC(=O)[C@@H]4C[C@@H]4F)cc3c2)c2cn[nH]c12)C1CCC(O)CC1` (stereo partly drawn) [Example 503, (1S,2S)-N-(5-(5-chloro-6-fluoro-7-((4-hydroxycyclohexyl)(methyl)amino)-1H-indazol-4-yl)pyrazolo[1,5-a]pyridin-2-yl)-2-fluorocyclopropane-1-carboxamide], in experiment [1], the IC50 is < 100 nM. For the same compound, in experiment [2] (setting [3]), the 50% effective concentration (EC50) was in the range of 200 to 1000 nM.

Turning to `CCOc1c(F)c(C)c(-c2ccn3nc(NC(=O)[C@@H]4C[C@@H]4F)cc3c2)c2cn[nH]c12` [Example 509, (1S,2S)-N-(5-(7-ethoxy-6-fluoro-5-methyl-1H-indazol-4-yl)pyrazolo[1,5-a]pyridin-2-yl)-2-fluorocyclopropane-1-carboxamide], in experiment [1], the IC50 was < 100 nM. Further, the EC50 is < 200 nM in experiment [2] (setting [3]) and 200 to 1000 nM in experiment [2] (setting [4]).

Turning to `O=C(Nc1cc2cc(-c3c(Cl)c(F)c(SCCO)c4[nH]ncc34)ccn2n1)[C@@H]1C[C@@H]1F` [Example 520, (1S,2S)-N-(5-(5-chloro-6-fluoro-7-((2-hydroxyethyl)thio)-1H-indazol-4-yl)pyrazolo[1,5-a]pyridin-2-yl)-2-fluorocyclopropane-1-carboxamide], the IC50 in experiment [1] is < 100 nM. The EC50 in experiment [2] (setting [3]) is 200 to 1000 nM.

As to `CCc1c(F)c(SCC(=O)NC)c2[nH]ncc2c1-c1ccn2nc(NC(=O)[C@@H]3C[C@@H]3F)cc2c1` [Example 521, (1S,2S)-N-(5-(5-ethyl-6-fluoro-7-((2-(methylamino)-2-oxoethyl)thio)-1H-indazol-4-yl)pyrazolo[1,5-a]pyridin-2-yl)-2-fluorocyclopropane-1-carboxamide bis(2,2,2-trifluoroacetate)], the IC50 in experiment [1] was < 100 nM. Moreover, the EC50 in experiment [2] (setting [3]) and in experiment [2] (setting [4]) was < 200 nM in each case.

Consider `Cc1c(F)c(SCCO)c2[nH]ncc2c1-c1ccn2nc(NC(=O)[C@@H]3C[C@@H]3F)cc2c1` [Example 523, (1S,2S)-2-fluoro-N-(5-(6-fluoro-7-((2-hydroxyethyl)thio)-5-methyl-1H-indazol-4-yl)pyrazolo[1,5-a]pyridin-2-yl)cyclopropane-1-carboxamide], for which, in experiment [1], the half-maximal inhibitory concentration (IC50) is < 100 nM. Moreover, in experiment [2] (setting [3]), the EC50 is < 200 nM.

On to `CCNc1c(F)c(CC)c(-c2ccn3nc(NC(=O)[C@@H]4C[C@@H]4F)cc3c2)c2cn[nH]c12` [Example 524, (1S,2S)-N-(5-(5-ethyl-7-(ethylamino)-6-fluoro-1H-indazol-4-yl)pyrazolo[1,5-a]pyridin-2-yl)-2-fluorocyclopropane-1-carboxamide], for which the IC50 in experiment [1] is < 100 nM. For the same compound, the EC50 in experiment [2] (setting [3]) and in experiment [2] (setting [4]) was < 200 nM in each case.

Take `CCc1c(F)c(N(C)CC)c2[nH]ncc2c1-c1ccn2nc(NC(=O)[C@@H]3C[C@@H]3F)cc2c1` [Example 525, (1S,2S)-N-(5-(5-ethyl-7-(ethyl(methyl)amino)-6-fluoro-1H-indazol-4-yl)pyrazolo[1,5-a]pyridin-2-yl)-2-fluorocyclopropane-1-carboxamide]: in experiment [1], the IC50 is < 100 nM. The figures for the half-maximal effective concentration (EC50) in experiment [2] (setting [3]) and in experiment [2] (setting [4]) were < 200 nM and 200 to 1000 nM, respectively.

As for `CSc1c(F)c(SC)c2[nH]ncc2c1-c1ccn2nc(NC(=O)[C@@H]3C[C@@H]3F)cc2c1` [Example 529, (1S,2S)-2-fluoro-N-(5-(6-fluoro-5,7-bis(methylthio)-1H-indazol-4-yl)pyrazolo[1,5-a]pyridin-2-yl)cyclopropane-1-carboxamide], in experiment [1], the IC50 is < 100 nM. Besides, the EC50 in experiment [2] (setting [3]) and in experiment [2] (setting [4]) was < 200 nM in each case.

The record behind these values is US11649255B2, “Indazoles as hematopoietic progenitor kinase 1 (HPK1) inhibitors and methods using same” (1st Biotherapeutics, Inc., priority 2020, dated 2023).
